Our source for the Activity, EC50 and IC50 values is ChEMBL document CHEMBL4118177, “Valproic acid induces three novel cytotoxic secondary metabolites in Diaporthe sp., an endophytic fungus from Datura inoxia Mill” (Bioorg Med Chem Lett, 2018).

Assay [1] is described as follows: Antioxidant activity assessed as DPPH free radical scavenging activity at 6.25 uM after 30 mins in dark by spectrophotometric method relative to control. In kind it is functional. A general note: The DPPH test is a chemical assay of radical scavenging.
Assay [2] is described as follows: Antioxidant activity assessed as DPPH free radical scavenging activity at 50 uM after 30 mins in dark by spectrophotometric method relative to control. In kind it is functional.
The nature of assay [3]: Antioxidant activity assessed as DPPH free radical scavenging activity at 12.5 uM after 30 mins in dark by spectrophotometric method relative to control. The format is functional.
The nature of assay [4]: Antioxidant activity assessed as DPPH free radical scavenging activity at 100 uM after 30 mins in dark by spectrophotometric method relative to control. In kind it is functional.
Assay [5] in a line: Antioxidant activity assessed as DPPH free radical scavenging activity at 25 uM after 30 mins in dark by spectrophotometric method relative to control. In kind it is functional.
Assay [6] is described as follows: Antioxidant activity assessed as DPPH free radical scavenging activity after 30 mins in dark by spectrophotometric method. The format is functional.
The next assay relates to Escherichia coli. Put plainly: Antibacterial activity against Escherichia coli ATCC 25922 at 62.5 uM after 24 hrs. In kind it is functional, organism-based.
Another assay relates to Staphylococcus aureus. Nature of the assay: Antibacterial activity against Staphylococcus aureus ATCC 25923 at 62.5 uM after 24 hrs. In kind it is functional, organism-based.
The next assay has as its system Pseudomonas aeruginosa. Nature of the assay: Antibacterial activity against Pseudomonas aeruginosa ATCC 27853 at 62.5 uM after 24 hrs. The format is functional, organism-based.
The subject of the next assay is MIA PaCa-2. Nature of the assay: Cytotoxicity against human MIAPaCa2 cells assessed as reduction in cell viability after 48 hrs by MTT assay. In kind it is functional, cell-based. Conditions: MIA PaCa-2, 48 h. For orientation: Tetrazolium assays rely on reduction of a dye to a coloured formazan, in cell work by metabolically active cells.
Another assay relates to T47D. Put plainly: Cytotoxicity against human T47D cells. The format is functional, cell-based.
In a further assay the test system is PC-3. Nature of the assay: Cytotoxicity against human PC3 cells assessed as reduction in cell viability after 48 hrs by MTT assay. The format is functional, cell-based. As to conditions: PC-3, 48 h.
In another assay the test system is MCF7. Nature of the assay: Cytotoxicity against human MCF7 cells assessed as reduction in cell viability after 48 hrs by MTT assay. The format is functional, cell-based. Conditions: MCF7, 48 h.

Activity calls are given as the source filed them. The calls are words filed in the database; no cut-off is given here.

Broadly, the EC50 is the concentration needed to bring the measured effect to its halfway point. For `O=C1O[C@H]([C@@H](O)CO)C(O)=C1O` [ASCORBIC ACID], the Activity in [1] is 52.7%; in [2], 85.8%; in assay [3], 60.9%; in assay [4], 87.8%; in assay [5], 76.5%. Besides, in assay [6], the EC50 amounted to 6.2 µM.

Consider `O=C(O)c1cn(C2CC2)c2cc(N3CCNCC3)c(F)cc2c1=O`, for which the result in the assay with Escherichia coli, in the assay on Staphylococcus aureus and with Pseudomonas aeruginosa was Active.

By IC50 is commonly meant the concentration at which inhibition is half-maximal. Take `CCC[C@@H]1C[C@H](O)[C@@H](O)/C=C/C=C\C(=O)O1`: the Activity is 35% in assay [1]; 38.5% in assay [2]; 36.6% in assay [3]; 39.1% in assay [4]; 37.4% in [5]. The IC50 in the assay on MIA PaCa-2 was determined as 32 µM; in the assay with T47D, 7 µM; in the assay with PC-3, 18 µM; in the assay on MCF7, 29 µM. Further, the result with Escherichia coli, with Staphylococcus aureus and with Pseudomonas aeruginosa was inactive. In addition, the EC50 in assay [6] was over 100 µM.

With `CCC[C@@H]1C[C@H](O)[C@@H](OC)/C=C/C=C\C(=O)O1`, the Activity was determined as 2.37% in assay [1]; 8.13% in [2]; 4.04% in [3]; 10% in [4]; 7.12% in assay [5]. For the same compound, the IC50 in the assay with MIA PaCa-2 was 34 µM; in the assay with PC-3, 22 µM; in the assay with MCF7, over 50 µM. Moreover, the result in the assay on Escherichia coli, in the assay on Staphylococcus aureus and in the assay with Pseudomonas aeruginosa was inactive. The EC50 in assay [6] is over 100 µM.

Take `CC(=O)O[C@H]1C(=O)[C@@]2(C)[C@H]([C@H](OC(=O)c3ccccc3)[C@]3(O)C[C@H](OC(=O)[C@H](O)[C@@H](NC(=O)c4ccccc4)c4ccccc4)C(C)=C1C3(C)C)[C@]1(OC(C)=O)CO[C@@H]1C[C@@H]2O` [PACLITAXEL]: the IC50 in the assay with MIA PaCa-2 stood at 0.006 µM; with PC-3, 0.007 µM.

As for `CCC[C@H]1OC(=O)/C=C\C=C\[C@H](O)[C@@H](O)[C@@H]1[C@H](C)COC(=O)c1ccc(O)cc1`, the Activity amounted to 22.1% in assay [1]; 59% in assay [2]; 26.8% in assay [3]; 63% in assay [4]; 48.3% in assay [5]. Besides, the half-inhibitory concentration (IC50) with MIA PaCa-2 stood at 20 µM; with PC-3 it was 14 µM; with MCF7, 30 µM. In addition, the result in the assay on Escherichia coli, in the assay on Staphylococcus aureus and in the assay with Pseudomonas aeruginosa was inactive. For the same compound, the EC50 in assay [6] was 27.5 µM.

Regarding `CCC/C=C/[C@@H]1OC(=O)c2cc(O)cc(O)c2[C@@H]1O`, the Activity amounted to 34.3% in assay [1]; 59% in assay [2]; 55% in assay [3]; 61% in assay [4]; 58% in assay [5]. In addition, the IC50 in the assay with MIA PaCa-2, in the assay with PC-3 and with MCF7 was over 50 µM throughout. The outcome in the assay on Escherichia coli, with Staphylococcus aureus and with Pseudomonas aeruginosa was inactive. The EC50 in assay [6] came out at 10.3 µM.
